Laboratory results as given in US5912251A, “Metabolically inert anti-inflammatory and anti-tumor antifolates” (priority 1998, dated 1999).

Key:
[1] = test system: carboxypeptidase derived from Pseudomonad sp
From the text: (§1) As part of a continuing program aimed at the development of less toxic and more specific antifolate drugs for the treatment of human cancers, the pteridine ring of the experimental anticancer drug methylene-10-deazaaminopterin [MDAM] was replaced with a quinazoline ring.

CCRF-CEM = test: Human Disease Oriented in vitro Antitumor Screen (NCI), total growth inhibition, CCRF-CEM; type: cell-based; conditions: Leukemia
Description: (§2) Compound 1 was evaluated for its anti-tumor activity using the Human Disease Oriented in vitro Antitumor Screen at the National Cancer Institute.

MCF7-ADR-RES = test: Human Disease Oriented in vitro Antitumor Screen (NCI), total growth inhibition, MCF7-ADR-RES; type: cell-based; conditions: Breast Cancer
Description: as §2

RPMI 8226 = test: Human Disease Oriented in vitro Antitumor Screen (NCI), total growth inhibition, RPMI 8226; type: cell-based; conditions: Leukemia
Description: as §2

MCF7 = test: Human Disease Oriented in vitro Antitumor Screen (NCI), total growth inhibition, MCF7; type: cell-based; conditions: Breast Cancer
Description: as §2

[2] = target: T1, human dihydrofolate Reductase (Homo sapiens, UniProt P00374); test: inhibition of human dihydrofolate reductase; type: biochemical; conditions: human enzyme; read-out: I50
T1 sequence (P00374 1-187): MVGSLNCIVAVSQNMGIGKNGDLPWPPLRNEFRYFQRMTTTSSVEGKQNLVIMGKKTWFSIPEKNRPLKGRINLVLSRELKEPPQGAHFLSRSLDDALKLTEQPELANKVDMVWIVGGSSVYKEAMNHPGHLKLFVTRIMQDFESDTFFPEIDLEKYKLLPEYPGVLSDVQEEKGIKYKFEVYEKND
From the text: In order to unravel the mechanism of action of 1 and 1 e they were examined as inhibitors of human dihydrofolate Reductase.

[3] = test system: rabbit liver aldehyde oxidase; test: incubation with rabbit liver aldehyde oxidase (conversion to 7-hydroxy derivative); type: in vitro ADME
MOLT-4 = test: Human Disease Oriented in vitro Antitumor Screen (NCI), total growth inhibition, MOLT-4; type: cell-based; conditions: Leukemia
Description: as §2

SR = test: Human Disease Oriented in vitro Antitumor Screen (NCI), total growth inhibition, SR; type: cell-based; conditions: Leukemia
Description: as §2

[4] = test system: human leukemia and human solid tumor cells; test: inhibitory activity against the growth of human cancer cells in culture; type: cell-based
[5] = test system: selected human tumor cells; test: Human Disease Oriented in vitro Antitumor Screen (NCI), panel as a whole; type: cell-based
Description: Compound 1 was evaluated for its anti-tumor activity using the Human Disease Oriented in vitro Antitumor Screen at the National Cancer Institute. […] This unexpected finding may be due to the inability of 1 to undergo metabolic transformation.

[6] = test system: leukemia cells that are resistant to MTX by virtue of defective polyglutamylation; test: growth inhibition of MTX-resistant leukemia cells with defective polyglutamylation vs wild type CCRF-CEM; type: cell-based; conditions: defective polyglutamylation line compared to wild type MTX sensitive parental CCRF-CEM
From the text: as §1

[7] = test system: folylpolyglutamate synthetase; test: evaluation in vitro using folylpolyglutamate synthetase (polyglutamylation); type: in vitro ADME
K562 = test: Human Disease Oriented in vitro Antitumor Screen (NCI), total growth inhibition, K562; type: cell-based; conditions: Leukemia
Description: as §2

SF 539 = test: Human Disease Oriented in vitro Antitumor Screen (NCI), total growth inhibition, SF 539; type: cell-based; conditions: CNS Cancer
Description: as §2

allergic rabbits = test: allergen-induced asthmatic responses and bronchial hyper-responsiveness (BHR) in allergic rabbits; type: in vivo, New Zealand White rabbit; conditions: for Asthmatic Response, Early: percent inhibition from control / Asthmatic Response, Late: percent inhibition from control / BHR (bronchial hyper-responsiveness): percent inhibition from control: aerosol 5 mg/ml; for Asthmatic Response, Early: percent inhibition from control: early-phase area under the curve; for Asthmatic Response, Late: percent inhibition from control: late-phase area under the curve; for BHR (bronchial hyper-responsiveness): percent inhibition from control: repeat histamine challenge 24 hour later
Description: Experimental Model: Induction of Asthma in Rabbits. New Zealand White Pasturella-free rabbit litter mates were bred and immunized ip within 24 hour of birth with 312 AU dust mite allergen extract [Berkeley Biological, Berkeley, Calif.] in 10% kaolin once every week for one month, then biweekly until the age of 4 months. Mustafa and co-workers used this rabbit model as described in American Journal of Physiology [266, 271-277, 1994]. These allergic animals preferentially produce allergen-specific IgE antibody and typically respond to aeroallergen challenge with an early and late phase asthmatic response and show increased bronchial hyper responsiveness (BHR).
Allergen, Theophylline and Antifolate Challenges: These experiments were carried out as described by Mustafa and co-workers in the Journal, Agents and Actions in 1992 [37, 168-170, 1992 ]. Briefly, allergic rabbits were challenged with ragweed allergen aerosol (10,000 PNU/mL) as described until there was an approximate 50% reduction in dynamic compliance (Cdyn). Pulmonary function was measured at 15 minutes intervals for 6 hours. The rabbit was challenged with indicated antifolates [5 mg/mL, aerosolized for 4 minutes ] followed immediately by the same total dose of allergen. Pulmonary function measurements as described by Mustafa and co-workers in the cited reference were carried out for 6 hours.
To assess the effect of antifolates on allergen-induced changes in the airways, the area under the curve for early and late -phase response was digitalized by computer-assisted plenometry for each rabbit during the six hour time period.

Compound	removal of the 4-methyleneglutamate moiety by carboxypeptidase [1]	Log 10 TGI (CCRF-CEM)	Log 10 TGI (RPMI 8226)	Log 10 TGI (MOLT-4)	Log 10 TGI (SR)	Log 10 TGI (K562)	Log 10 TGI (SF 539)	Asthmatic Response, Early: percent inhibition from control (allergic rabbits) [%]	Asthmatic Response, Late: percent inhibition from control (allergic rabbits) [%]	BHR (bronchial hyper-responsiveness): percent inhibition from control (allergic rabbits) [%]	other results
C=C(CC(NC(=O)c1ccc(CCc2ccc3nc(N)nc(N)c3c2)cc1)C(=O)O)C(=O)O (stereo not shown) [Compound 1, 5,8,10-trideaza-4'-methyleneaminopterin]	failed to remove the 4-methyleneglutamate moiety	< -8.00	-7.44	-7.4	< -8.00	< -8.00	-6.3	52	58	47	Log 10 TGI (MCF7-ADR-RES): -7.26; Log 10 TGI (MCF7): -6.32; IC50 [2]: 66 nM; conversion to 7-hydroxy derivative by aldehyde oxidase [3]: completely inert; inhibitory activity against the growth of human cancer cells relative to MTX or MDAM [4]: strikingly more active than either MTX or MDAM; killing of human leukemia and solid tumor cells in culture ([4]; therapeutically relevant concentrations): able to kill a large number of human luekemia and human solid tumor cells in culture at therapeutically relevant concentrations; killing of cancer cells (in words) ([5]; NCI in vitro antitumor screen): able to kill cancer cells with remarkable potency; times more effective than MTX in this panel ([5]; total growth inhibition, NCI panel of Table 2): 1,000-10,000 times; collateral sensitivity: times more sensitive in inhibiting the growth of MTX-resistant leukemia cells [6]: 4-5 times; elaboration to polyglutamates [7]: not capable of elaboration to its polyglutamates; anti-asthmatic activity (in words) (allergic rabbits; relative to MTX and theophylline): not only superior to MTX but also to the well known anti-asthmatic drug theophylline in both early and late asthmatic responses and bronchial hyper responsiveness (BHR)
C=C(CC(NC(=O)c1ccc(N(C)Cc2ccc3nc(N)nc(N)c3c2)cc1)C(=O)O)C(=O)O (stereo not shown) [Compound 1d]	failed to remove the 4-methyleneglutamate moiety	–	–	–	–	–	–	–	–	–	–
CN(Cc1cnc2nc(N)nc(N)c2n1)c1ccc(C(=O)N[C@@H](CCC(=O)O)C(=O)O)cc1 [MTX, methotrexate, reference compound]	–	-3.77	-3.66	-3.55	-3.25	-3.3	-3.66	29	37	32	–
Cn1c(=O)c2[nH]cnc2n(C)c1=O [Theophylline, theophylline]	–	–	–	–	–	–	–	45	49	39	–
